Measurements taken from patent publication US20260256792A1, “TREATMENT OF CHRONIC SPONTANEOUS URTICARIA BY ADMINISTERING (R)-2-[3-[4-AMINO-3-(2-FLUORO-4-PHENOXY-PHENYL)PYRAZOLO[3,4-D]PYRIMIDIN-1-YL]PIPERIDINE-1-CARBONYL]-4-METHYL-4-[4-(OXETAN-3-YL)PIPERAZIN-1-YL]PENT-2-ENENITRILE” (priority 2023, published 2026).

System: angioedema in CSU patients
Assay: Phase 2 CSU study: angioedema activity score over 7 days (AAS7)
Format: in vivo, human
Conditions: 400 mg BID; for AAS7 % Change difference for rilzabrutinib vs. placebo LS Mean (95% CI) / AAS7 % Change from baseline LS Mean (SE) / AAS7 Change difference for rilzabrutinib vs. placebo LS Mean (95% CI) / AAS7 Change from baseline LS Mean (SE) / AAS7 Post-baseline Mean (SD) / AAS7 = 0, Non-responder n (%) / AAS7 = 0, OR (95% CI) for rilzabrutinib vs. placebo / AAS7 = 0, RRD (%) for rilzabrutinib vs. placebo (95% CI) / Participants with AAS7 = 0, Responder n (%): angioedema at baseline; for Non-responder n (%), AAS7 = 0 / RRD (%) for rilzabrutinib vs. placebo (95% CI), AAS7 = 0 / Responder n (%), AAS7 = 0 / OR (95% CI) for rilzabrutinib vs. placebo, AAS7 = 0: outlier removed
From the text: The study comprises a 12 week, randomized, double-blind, placebo-controlled, multi-center, dose-ranging efficacy and safety phase, followed by a 40 week open label extension (OLE) phase (see FIG. 1). The study consists of three phases and an optional OLE phase. […] The weekly angioedema activity score (AAS7) was proposed as a tertiary endpoint. […] Patients were to complete the AAS using the e-diary. The e-diary was to be used once daily on the same time of each day recording of participant's answers to the angioedema activity score over 7 days (AAS7) questionnaire.

SMILES: CC(C)(C=C(C#N)C(=O)N1CCC[C@@H](n2nc(-c3ccc(Oc4ccccc4)cc3F)c3c(N)ncnc32)C1)N1CCN(C2COC2)CC1 [rilzabrutinib, (R)-2-[3-[4-amino-3-(2-fluoro-4-phenoxy-phenyl)pyrazolo[3,4-d]pyrimidin-1-yl]piperidine-1-carbonyl]-4-methyl-4-[4-(oxetan-3-yl)piperazin-1-yl]pent-2-enenitrile]
- AAS7 % Change difference for rilzabrutinib vs. placebo LS Mean (95% CI) (Week 1, ITT): −40.37 (−70.92, −9.83) %
- AAS7 % Change from baseline LS Mean (SE) (Week 1, ITT): −60.34 (9.85) %
- AAS7 Change difference for rilzabrutinib vs. placebo LS Mean (95% CI) (Week 1, ITT): −9.84 (−22.84, 3.16)
- AAS7 Change from baseline LS Mean (SE) (Week 1, ITT): −24.34 (4.19)
- AAS7 Post-baseline Mean (SD) (Week 1, ITT): 23.35 (30.86)
- Non-responder n (%), AAS7 = 0 (Week 1, omalizumab-naïve): 16 (45.7) n (%)
- RRD (%) for rilzabrutinib vs. placebo (95% CI), AAS7 = 0 (Week 1, omalizumab-naïve): 23.4 %
- Responder n (%), AAS7 = 0 (Week 1, omalizumab-naïve): 19 (54.3) n (%)
- AAS7 % Change difference for rilzabrutinib vs. placebo LS Mean (95% CI) (Week 1, omalizumab-naïve): −42.17 (−75.41, −8.93) %
- AAS7 = 0, Non-responder n (%) (Week 1, omalizumab-naïve): 15 (57.7) n (%)
- AAS7 = 0, OR (95% CI) for rilzabrutinib vs. placebo (Week 1, omalizumab-naïve): 20.850
- AAS7 = 0, RRD (%) for rilzabrutinib vs. placebo (95% CI) (Week 1, omalizumab-naïve): 35.1 %
- AAS7 Change difference for rilzabrutinib vs. placebo LS Mean (95% CI) (Week 1, omalizumab-naïve): −9.69 (−23.74, 4.37)
- AAS7 Change from baseline LS Mean (SE) (Week 1, omalizumab-naïve): −23.46 (4.42)
- AAS7 Post-baseline Mean (SD) (Week 1, omalizumab-naïve): 25.15 (31.33)
- Participants with AAS7 = 0, Responder n (%) (Week 1, omalizumab-naïve): 11 (42.3) n (%)
- AAS7 % Change difference for rilzabrutinib vs. placebo LS Mean (95% CI) (Week 2, ITT): −8.15 (−40.12, 23.82) %
- AAS7 % Change from baseline LS Mean (SE) (Week 2, ITT): −49.52 (12.60) %
- AAS7 Change difference for rilzabrutinib vs. placebo LS Mean (95% CI) (Week 2, ITT): −5.96 (−17.22, 5.30)
- AAS7 Change from baseline LS Mean (SE) (Week 2, ITT): −26.86 (4.43)
- AAS7 Post-baseline Mean (SD) (Week 2, ITT): 22.75 (28.74)
- Non-responder n (%), AAS7 = 0 (Week 2, omalizumab-naïve): 18 (51.4) n (%)
- OR (95% CI) for rilzabrutinib vs. placebo, AAS7 = 0 (Week 2, omalizumab-naïve): 1.366
- RRD (%) for rilzabrutinib vs. placebo (95% CI), AAS7 = 0 (Week 2, omalizumab-naïve): 8.2 %
- Responder n (%), AAS7 = 0 (Week 2, omalizumab-naïve): 17 (48.6) n (%)
- AAS7 % Change difference for rilzabrutinib vs. placebo LS Mean (95% CI) (Week 2, omalizumab-naïve): −9.47 (−44.02, 25.08) %
- AAS7 % Change from baseline LS Mean (SE) (Week 2, omalizumab-naïve): −46.69 (13.31) %
- AAS7 = 0, Non-responder n (%) (Week 2, omalizumab-naïve): 17 (65.4) n (%)
- AAS7 = 0, OR (95% CI) for rilzabrutinib vs. placebo (Week 2, omalizumab-naïve): 2.012
- AAS7 = 0, RRD (%) for rilzabrutinib vs. placebo (95% CI) (Week 2, omalizumab-naïve): 14.6 %
- AAS7 Post-baseline Mean (SD) (Week 2, omalizumab-naïve): 24.57 (29.12)
- Participants with AAS7 = 0, Responder n (%) (Week 2, omalizumab-naïve): 9 (34.6) n (%)
- AAS7 % Change difference for rilzabrutinib vs. placebo LS Mean (95% CI) (Week 3, ITT): −7.33 (−47.50, 32.83) %
- AAS7 % Change from baseline LS Mean (SE) (Week 3, ITT): −55.85 (15.71) %
- AAS7 Change difference for rilzabrutinib vs. placebo LS Mean (95% CI) (Week 3, ITT): −11.42 (−22.95, 0.12)
- AAS7 Change from baseline LS Mean (SE) (Week 3, ITT): −35.57 (4.51)
- AAS7 Post-baseline Mean (SD) (Week 3, ITT): 14.81 (20.54)
- Non-responder n (%), AAS7 = 0 (Week 3, omalizumab-naïve): 15 (42.9) n (%)
- OR (95% CI) for rilzabrutinib vs. placebo, AAS7 = 0 (Week 3, omalizumab-naïve): 2.357
- RRD (%) for rilzabrutinib vs. placebo (95% CI), AAS7 = 0 (Week 3, omalizumab-naïve): 21.6 %
- Responder n (%), AAS7 = 0 (Week 3, omalizumab-naïve): 20 (57.1) n (%)
- AAS7 % Change difference for rilzabrutinib vs. placebo LS Mean (95% CI) (Week 3, omalizumab-naïve): −5.01 (−48.85, 38.83) %
- AAS7 % Change from baseline LS Mean (SE) (Week 3, omalizumab-naïve): −52.68 (16.72) %
- AAS7 = 0, Non-responder n (%) (Week 3, omalizumab-naïve): 15 (57.7) n (%)
- AAS7 = 0, OR (95% CI) for rilzabrutinib vs. placebo (Week 3, omalizumab-naïve): 2.703
- AAS7 = 0, RRD (%) for rilzabrutinib vs. placebo (95% CI) (Week 3, omalizumab-naïve): 20.8 %
- AAS7 Post-baseline Mean (SD) (Week 3, omalizumab-naïve): 15.95 (20.90)
- Participants with AAS7 = 0, Responder n (%) (Week 3, omalizumab-naïve): 11 (42.3) n (%)
- AAS7 % Change from baseline LS Mean (SE) (Week 4, ITT): −60.60 (13.93) %
- AAS7 Change difference for rilzabrutinib vs. placebo LS Mean (95% CI) (Week 4, ITT): −12.73 (−23.88, −1.58)
- AAS7 Change from baseline LS Mean (SE) (Week 4, ITT): −35.34 (4.34)
- AAS7 Post-baseline Mean (SD) (Week 4, ITT): 13.70 (17.64)
- Non-responder n (%), AAS7 = 0 (Week 4, omalizumab-naïve): 17 (48.6) n (%)
- OR (95% CI) for rilzabrutinib vs. placebo, AAS7 = 0 (Week 4, omalizumab-naïve): 1.361
- RRD (%) for rilzabrutinib vs. placebo (95% CI), AAS7 = 0 (Week 4, omalizumab-naïve): 7.4 %
- Responder n (%), AAS7 = 0 (Week 4, omalizumab-naïve): 18 (51.4) n (%)
- AAS7 % Change difference for rilzabrutinib vs. placebo LS Mean (95% CI) (Week 4, omalizumab-naïve): −28.19 (−67.14, 10.77) %
- AAS7 % Change from baseline LS Mean (SE) (Week 4, omalizumab-naïve): −58.12 (14.75) %
- AAS7 = 0, Non-responder n (%) (Week 4, omalizumab-naïve): 15 (57.7) n (%)
